# From PMC9856672, “SGC-CAMKK2-1: A Chemical Probe for CAMKK2” (Cells, 2023)
# Experiments:
# [1] = target: T1, MAP4K5 (Homo sapiens, UniProt Q9Y4K4); experiment: KINOMEscan at 1 μM, MAP4K5; type: binding; settings: 1000 nM, read-out: Percent Control
# T1 construct: purchased Eurofins DiscoverX KINOMEscan
# Description: (§1) Supplement cells-12-00287-s001.zip/File S2. KinomeScan data for the CAMKK2 probe and negative control.xlsx, sheet "SGC-CAMKK2-1N" | column: Percent Control
# [2] = target: T2, EGFR(L747-E749del, A750P) (Homo sapiens, UniProt P00533, A750P/DEL747-749); experiment: KINOMEscan binding assay at 1 μM, EGFR(L747-E749del, A750P); settings: Compound Concentration 1000 nM; read-out: Percent Control
# T2 construct: purchased Eurofins DiscoverX KINOMEscan
# Description: as §1
# [3] = target: T3, CSNK1A1L (Homo sapiens, UniProt Q8N752); experiment: KINOMEscan at 1 μM, CSNK1A1L; type: binding; settings: 1000 nM, read-out: Percent Control
# T3 construct: purchased Eurofins DiscoverX KINOMEscan
# Description: as §1
# [4] = target: T4, MRCKB (Homo sapiens, UniProt Q9Y5S2); experiment: KINOMEscan binding assay at 1 μM, MRCKB; settings: Compound Concentration 1000 nM; read-out: Percent Control
# T4 construct: purchased Eurofins DiscoverX KINOMEscan
# Description: as §1
# [5] = target: T5, STK33 (Homo sapiens, UniProt Q9BYT3); experiment: KINOMEscan binding assay at 1 μM, STK33; settings: Compound Concentration 1000 nM; read-out: Percent Control
# T5 construct: purchased Eurofins DiscoverX KINOMEscan
# T5 sequence (Q9BYT3 whole entry): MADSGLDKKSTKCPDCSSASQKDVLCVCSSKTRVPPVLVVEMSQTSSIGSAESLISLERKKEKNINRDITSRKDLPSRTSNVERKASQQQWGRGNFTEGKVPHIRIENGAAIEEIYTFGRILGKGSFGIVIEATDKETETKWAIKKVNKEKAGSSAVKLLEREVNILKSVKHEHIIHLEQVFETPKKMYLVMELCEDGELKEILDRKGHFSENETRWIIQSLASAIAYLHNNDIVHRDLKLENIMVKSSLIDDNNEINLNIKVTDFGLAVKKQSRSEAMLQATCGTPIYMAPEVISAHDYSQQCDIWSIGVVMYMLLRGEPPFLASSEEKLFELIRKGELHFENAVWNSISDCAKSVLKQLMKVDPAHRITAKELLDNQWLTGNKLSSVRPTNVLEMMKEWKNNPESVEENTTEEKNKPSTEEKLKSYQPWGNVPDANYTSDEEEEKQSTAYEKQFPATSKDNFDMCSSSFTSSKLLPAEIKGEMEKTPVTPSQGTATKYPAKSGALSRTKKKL
# Description: as §1
# [6] = target: T6, ERK2 (Homo sapiens, UniProt P28482); experiment: KINOMEscan binding assay at 1 μM, ERK2; settings: Compound Concentration 1000 nM; read-out: Percent Control
# T6 construct: purchased Eurofins DiscoverX KINOMEscan
# Description: as §1
# [7] = target: T7, NEK6 (Homo sapiens, UniProt Q9HC98); experiment: KINOMEscan binding assay at 1 μM, NEK6; settings: Compound Concentration 1000 nM; read-out: Percent Control
# T7 construct: purchased Eurofins DiscoverX KINOMEscan
# Description: as §1
# [8] = target: T8, RIOK2 (Homo sapiens, UniProt Q9BVS4); experiment: KINOMEscan at 1 μM, RIOK2; type: binding; settings: 1000 nM, read-out: Percent Control
# T8 construct: purchased Eurofins DiscoverX KINOMEscan
# T8 sequence (Q9BVS4 whole entry): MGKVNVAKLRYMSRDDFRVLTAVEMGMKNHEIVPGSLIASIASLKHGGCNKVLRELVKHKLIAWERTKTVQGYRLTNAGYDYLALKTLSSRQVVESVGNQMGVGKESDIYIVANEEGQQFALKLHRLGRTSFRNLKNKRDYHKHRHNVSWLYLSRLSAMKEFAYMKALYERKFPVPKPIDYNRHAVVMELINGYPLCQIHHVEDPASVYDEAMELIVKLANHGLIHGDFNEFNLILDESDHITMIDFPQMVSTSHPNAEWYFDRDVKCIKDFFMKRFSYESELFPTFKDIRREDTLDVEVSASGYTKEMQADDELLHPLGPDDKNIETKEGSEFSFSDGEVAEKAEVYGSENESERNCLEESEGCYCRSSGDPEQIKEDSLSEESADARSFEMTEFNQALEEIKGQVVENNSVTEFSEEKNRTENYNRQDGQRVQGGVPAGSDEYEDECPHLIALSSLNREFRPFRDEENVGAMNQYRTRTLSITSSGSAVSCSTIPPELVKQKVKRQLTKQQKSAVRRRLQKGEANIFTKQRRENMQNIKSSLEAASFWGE
# Description: as §1
# [9] = target: T9, MAPKAPK5 (Homo sapiens, UniProt Q8IW41); experiment: KINOMEscan binding assay at 1 μM, MAPKAPK5; settings: Compound Concentration 1000 nM; read-out: Percent Control
# T9 construct: purchased Eurofins DiscoverX KINOMEscan
# Description: as §1
# [10] = target: T10, TNK2 (Homo sapiens, UniProt Q07912); experiment: KINOMEscan at 1 μM, TNK2; type: binding; settings: 1000 nM, read-out: Percent Control
# T10 construct: purchased Eurofins DiscoverX KINOMEscan
# T10 sequence (Q07912 whole entry): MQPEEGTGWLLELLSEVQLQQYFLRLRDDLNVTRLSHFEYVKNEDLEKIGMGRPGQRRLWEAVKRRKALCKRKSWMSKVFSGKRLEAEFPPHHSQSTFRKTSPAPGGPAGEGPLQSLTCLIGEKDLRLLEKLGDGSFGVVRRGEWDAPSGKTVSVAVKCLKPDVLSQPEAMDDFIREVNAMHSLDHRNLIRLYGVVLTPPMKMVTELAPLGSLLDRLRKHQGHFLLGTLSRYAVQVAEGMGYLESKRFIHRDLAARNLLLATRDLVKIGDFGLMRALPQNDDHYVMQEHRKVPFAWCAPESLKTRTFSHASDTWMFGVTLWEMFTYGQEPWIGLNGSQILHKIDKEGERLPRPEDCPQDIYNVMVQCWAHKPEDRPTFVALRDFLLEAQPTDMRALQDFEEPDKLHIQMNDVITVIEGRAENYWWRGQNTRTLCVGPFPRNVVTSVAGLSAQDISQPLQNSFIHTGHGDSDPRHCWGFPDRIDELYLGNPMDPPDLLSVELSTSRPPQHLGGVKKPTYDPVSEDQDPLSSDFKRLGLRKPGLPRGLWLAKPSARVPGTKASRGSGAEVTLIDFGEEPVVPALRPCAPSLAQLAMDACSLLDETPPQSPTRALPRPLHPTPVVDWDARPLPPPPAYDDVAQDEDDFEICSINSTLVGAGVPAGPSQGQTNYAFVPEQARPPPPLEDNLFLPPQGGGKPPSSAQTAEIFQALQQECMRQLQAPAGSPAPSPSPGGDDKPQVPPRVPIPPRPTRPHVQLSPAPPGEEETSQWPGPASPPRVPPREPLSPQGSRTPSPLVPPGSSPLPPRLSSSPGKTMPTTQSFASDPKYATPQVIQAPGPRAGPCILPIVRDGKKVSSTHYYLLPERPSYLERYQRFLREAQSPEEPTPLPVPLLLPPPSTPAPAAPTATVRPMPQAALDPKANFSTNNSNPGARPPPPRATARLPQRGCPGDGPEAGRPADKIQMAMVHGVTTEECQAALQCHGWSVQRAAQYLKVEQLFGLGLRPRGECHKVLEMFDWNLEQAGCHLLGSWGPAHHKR
# Description: as §1
# [11] = target: T11, SRPK3 (Homo sapiens, UniProt Q9UPE1); experiment: KINOMEscan binding assay at 1 μM, SRPK3; settings: Compound Concentration 1000 nM; read-out: Percent Control
# T11 construct: purchased Eurofins DiscoverX KINOMEscan
# Description: as §1
# [12] = target: T12, ABL1(H396P)-nonphosphorylated (Homo sapiens, UniProt P00519, H396P); experiment: KINOMEscan at 1 μM, ABL1(H396P)-nonphosphorylated; type: binding; settings: 1000 nM, read-out: Percent Control
# T12 construct: purchased Eurofins DiscoverX KINOMEscan
# Description: as §1
# [13] = target: T13, NEK10 (Homo sapiens, UniProt Q6ZWH5); experiment: KINOMEscan at 1 μM, NEK10; type: binding; settings: 1000 nM, read-out: Percent Control
# T13 construct: purchased Eurofins DiscoverX KINOMEscan
# T13 sequence (Q6ZWH5 whole entry): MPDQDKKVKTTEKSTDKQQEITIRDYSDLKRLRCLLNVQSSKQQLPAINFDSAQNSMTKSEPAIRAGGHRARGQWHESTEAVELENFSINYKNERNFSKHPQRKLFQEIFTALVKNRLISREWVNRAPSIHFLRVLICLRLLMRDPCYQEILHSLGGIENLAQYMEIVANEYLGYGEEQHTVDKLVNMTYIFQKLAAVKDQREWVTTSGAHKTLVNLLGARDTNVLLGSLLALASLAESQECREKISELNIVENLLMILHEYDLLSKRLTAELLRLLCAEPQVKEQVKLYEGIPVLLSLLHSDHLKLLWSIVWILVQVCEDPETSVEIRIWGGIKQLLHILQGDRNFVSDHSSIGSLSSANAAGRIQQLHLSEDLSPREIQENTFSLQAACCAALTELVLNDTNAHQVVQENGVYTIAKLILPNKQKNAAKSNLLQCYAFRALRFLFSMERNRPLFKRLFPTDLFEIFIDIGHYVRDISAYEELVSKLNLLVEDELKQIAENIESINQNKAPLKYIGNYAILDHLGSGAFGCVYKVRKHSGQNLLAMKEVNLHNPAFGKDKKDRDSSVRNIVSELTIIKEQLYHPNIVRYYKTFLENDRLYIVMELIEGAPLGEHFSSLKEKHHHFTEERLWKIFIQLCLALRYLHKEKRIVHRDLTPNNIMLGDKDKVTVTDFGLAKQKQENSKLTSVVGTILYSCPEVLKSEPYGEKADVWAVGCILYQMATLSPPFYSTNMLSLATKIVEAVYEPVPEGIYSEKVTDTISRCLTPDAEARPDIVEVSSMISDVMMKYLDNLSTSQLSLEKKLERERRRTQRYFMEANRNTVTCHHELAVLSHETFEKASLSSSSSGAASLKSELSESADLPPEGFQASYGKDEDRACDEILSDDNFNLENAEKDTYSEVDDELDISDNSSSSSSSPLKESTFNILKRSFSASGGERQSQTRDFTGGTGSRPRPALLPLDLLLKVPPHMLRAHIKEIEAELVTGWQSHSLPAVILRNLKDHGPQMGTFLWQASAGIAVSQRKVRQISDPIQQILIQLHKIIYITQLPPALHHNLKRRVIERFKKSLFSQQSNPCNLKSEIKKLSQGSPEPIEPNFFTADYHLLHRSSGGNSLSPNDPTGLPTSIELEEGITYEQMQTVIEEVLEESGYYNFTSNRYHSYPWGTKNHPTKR
# Description: as §1
# [14] = target: T14, MST3 (Homo sapiens, UniProt Q9Y6E0); experiment: KINOMEscan binding assay at 1 μM, MST3; settings: Compound Concentration 1000 nM; read-out: Percent Control
# T14 construct: purchased Eurofins DiscoverX KINOMEscan
# Description: as §1
# [15] = target: T15, TESK1 (Homo sapiens, UniProt Q15569); experiment: KINOMEscan at 1 μM, TESK1; type: binding; settings: 1000 nM, read-out: Percent Control
# T15 construct: purchased Eurofins DiscoverX KINOMEscan
# Description: as §1
# [16] = target: T16, CTK (Homo sapiens, UniProt P42679); experiment: KINOMEscan at 1 μM, CTK; type: binding; settings: 1000 nM, read-out: Percent Control
# T16 construct: purchased Eurofins DiscoverX KINOMEscan
# Description: as §1
# [17] = target: T17, ABL1-nonphosphorylated (Homo sapiens, UniProt P00519); experiment: KINOMEscan at 1 μM, ABL1-nonphosphorylated; type: binding; settings: 1000 nM, read-out: Percent Control
# T17 construct: purchased Eurofins DiscoverX KINOMEscan
# Description: as §1
# [18] = target: T18, PIM3 (Homo sapiens, UniProt Q86V86); experiment: KINOMEscan at 1 μM, PIM3; type: binding; settings: 1000 nM, read-out: Percent Control
# T18 construct: purchased Eurofins DiscoverX KINOMEscan
# Description: as §1
# [19] = target: T19, LOK (Homo sapiens, UniProt O94804); experiment: KINOMEscan binding assay at 1 μM, LOK; settings: Compound Concentration 1000 nM; read-out: Percent Control
# T19 construct: purchased Eurofins DiscoverX KINOMEscan
# T19 sequence (O94804 whole entry): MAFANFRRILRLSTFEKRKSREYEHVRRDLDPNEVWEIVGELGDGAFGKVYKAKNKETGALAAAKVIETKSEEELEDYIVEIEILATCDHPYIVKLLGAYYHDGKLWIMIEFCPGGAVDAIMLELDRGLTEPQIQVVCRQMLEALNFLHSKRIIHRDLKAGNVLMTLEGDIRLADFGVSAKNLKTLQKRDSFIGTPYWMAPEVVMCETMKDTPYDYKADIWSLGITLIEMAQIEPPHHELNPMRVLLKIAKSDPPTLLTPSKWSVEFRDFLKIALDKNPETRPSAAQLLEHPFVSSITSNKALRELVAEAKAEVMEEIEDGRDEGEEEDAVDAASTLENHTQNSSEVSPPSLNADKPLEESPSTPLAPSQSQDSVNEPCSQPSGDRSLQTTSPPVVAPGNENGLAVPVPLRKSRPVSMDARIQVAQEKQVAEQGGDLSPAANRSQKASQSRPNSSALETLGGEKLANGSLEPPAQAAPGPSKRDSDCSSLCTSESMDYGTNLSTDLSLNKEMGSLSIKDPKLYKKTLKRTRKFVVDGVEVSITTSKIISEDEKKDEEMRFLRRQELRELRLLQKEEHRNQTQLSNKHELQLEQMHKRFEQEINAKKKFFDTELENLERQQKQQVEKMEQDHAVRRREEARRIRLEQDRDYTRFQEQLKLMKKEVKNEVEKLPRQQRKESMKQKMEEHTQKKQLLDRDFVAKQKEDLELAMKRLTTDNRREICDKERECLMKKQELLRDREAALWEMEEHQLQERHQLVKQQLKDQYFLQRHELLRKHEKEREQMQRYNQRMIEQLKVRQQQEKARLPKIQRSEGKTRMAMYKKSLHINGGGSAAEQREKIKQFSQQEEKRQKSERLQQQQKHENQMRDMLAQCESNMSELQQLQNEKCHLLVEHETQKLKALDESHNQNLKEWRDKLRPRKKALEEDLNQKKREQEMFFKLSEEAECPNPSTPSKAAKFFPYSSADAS
# Description: as §1
# [20] = target: T20, JNK2 (Homo sapiens, UniProt P45984); experiment: KINOMEscan at 1 μM, JNK2; type: binding; settings: 1000 nM, read-out: Percent Control
# T20 construct: purchased Eurofins DiscoverX KINOMEscan
# Description: as §1
# [21] = target: T21, ERN1 (Homo sapiens, UniProt O75460); experiment: KINOMEscan 1 μM, ERN1; type: binding; settings: 1000 nM; Entrez ERN1; read-out: Percent Control
# T21 construct: purchased Eurofins DiscoverX KINOMEscan
# Description: (§2) Supplement cells-12-00287-s001.zip/File S2. KinomeScan data for the CAMKK2 probe and negative control.xlsx, sheet "SGC-CAMKK2-1" | column: Percent Control
# [22] = target: T22, TGFBR1 (Homo sapiens, UniProt P36897); experiment: DiscoverX KINOMEscan binding assay at 1 μM, TGFBR1; settings: Compound Concentration 1000 nM, read-out: Percent Control
# T22 construct: purchased Eurofins DiscoverX KINOMEscan
# Description: as §2
# [23] = target: T23, MST4 (Homo sapiens, UniProt Q9P289); experiment: KINOMEscan 1 μM, MST4; type: binding; settings: 1000 nM; Entrez MST4; read-out: Percent Control
# T23 construct: purchased Eurofins DiscoverX KINOMEscan
# Description: as §2
# [24] = target: T24, RPS6KA5(Kin.Dom.1-N-terminal) (Homo sapiens, UniProt O75582); experiment: KINOMEscan 1 μM, RPS6KA5(Kin.Dom.1-N-terminal); type: binding; settings: 1000 nM; Entrez RPS6KA5; read-out: Percent Control
# T24 construct: RPS6KA5(Kin.Dom.1-N-terminal); purchased Eurofins DiscoverX KINOMEscan
# Description: as §2
# [25] = target: T25, EGFR(L858R) (Homo sapiens, UniProt P00533, L858R); experiment: KINOMEscan 1 μM, EGFR(L858R); type: binding; settings: 1000 nM; Entrez EGFR; read-out: Percent Control
# T25 construct: purchased Eurofins DiscoverX KINOMEscan
# Description: as §2
# [26] = target: T26, HCK (Homo sapiens, UniProt P08631); experiment: KINOMEscan 1 μM, HCK; type: binding; settings: 1000 nM; Entrez HCK; read-out: Percent Control
# T26 construct: purchased Eurofins DiscoverX KINOMEscan
# Description: as §2
# [27] = target: T27, CDK4-cyclinD1 (Homo sapiens, UniProt P11802); experiment: KINOMEscan 1 μM, CDK4-cyclinD1; type: binding; settings: 1000 nM; Entrez CDK4; read-out: Percent Control
# T27 construct: purchased Eurofins DiscoverX KINOMEscan
# T27 sequence (P11802 whole entry): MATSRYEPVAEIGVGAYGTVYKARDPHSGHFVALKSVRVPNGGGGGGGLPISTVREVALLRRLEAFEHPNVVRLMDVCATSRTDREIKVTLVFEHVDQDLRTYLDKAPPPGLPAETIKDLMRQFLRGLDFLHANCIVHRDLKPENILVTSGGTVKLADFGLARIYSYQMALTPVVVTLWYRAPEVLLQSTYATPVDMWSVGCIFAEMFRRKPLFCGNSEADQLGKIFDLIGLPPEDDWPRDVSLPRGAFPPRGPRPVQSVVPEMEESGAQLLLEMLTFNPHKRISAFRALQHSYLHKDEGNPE
# T27 sequence (P24385 whole entry partner): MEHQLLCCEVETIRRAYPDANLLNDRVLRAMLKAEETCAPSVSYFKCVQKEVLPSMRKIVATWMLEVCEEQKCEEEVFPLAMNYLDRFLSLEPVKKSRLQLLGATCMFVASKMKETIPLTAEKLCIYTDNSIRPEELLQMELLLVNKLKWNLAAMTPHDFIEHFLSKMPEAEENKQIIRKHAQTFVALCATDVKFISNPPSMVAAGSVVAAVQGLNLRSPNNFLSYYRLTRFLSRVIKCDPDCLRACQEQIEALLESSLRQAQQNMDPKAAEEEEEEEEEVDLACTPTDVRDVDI
# Description: as §2
# [28] = target: T28, EPHA3 (Homo sapiens, UniProt P29320); experiment: KINOMEscan 1 μM, EPHA3; type: binding; settings: 1000 nM; Entrez EPHA3; read-out: Percent Control
# T28 construct: purchased Eurofins DiscoverX KINOMEscan
# Description: as §2
# [29] = target: T29, SIK2 (Homo sapiens, UniProt Q9H0K1); experiment: KINOMEscan 1 μM, SIK2; type: binding; settings: 1000 nM; Entrez SIK2; read-out: Percent Control
# T29 construct: purchased Eurofins DiscoverX KINOMEscan
# Description: as §2
# [30] = target: T30, SGK2 (Homo sapiens, UniProt Q9HBY8); experiment: KINOMEscan 1 μM, SGK2; type: binding; settings: 1000 nM; Entrez SGK2; read-out: Percent Control
# T30 construct: purchased Eurofins DiscoverX KINOMEscan
# Description: as §2
# [31] = target: T8, RIOK2; experiment: DiscoverX KINOMEscan binding assay at 1 μM, RIOK2; settings: Compound Concentration 1000 nM, read-out: Percent Control
# Description: as §2
# [32] = target: T31, YANK3 (Homo sapiens, UniProt Q86UX6); experiment: DiscoverX KINOMEscan binding assay at 1 μM, YANK3; settings: YANK3 (STK32C); Compound Concentration 1000 nM; read-out: Percent Control
# T31 construct: purchased Eurofins DiscoverX KINOMEscan
# Description: as §2
# [33] = target: T32, BRSK2 (Homo sapiens, UniProt Q8IWQ3); experiment: KINOMEscan 1 μM, BRSK2; type: binding; settings: 1000 nM; Entrez BRSK2; read-out: Percent Control
# T32 construct: purchased Eurofins DiscoverX KINOMEscan
# Description: as §2
# [34] = target: T33, FLT4 (Homo sapiens, UniProt P35916); experiment: KINOMEscan 1 μM, FLT4; type: binding; settings: 1000 nM; Entrez FLT4; read-out: Percent Control
# T33 construct: purchased Eurofins DiscoverX KINOMEscan
# Description: as §2
structure (smiles),measurement,setting,value
O=C(O)c1ccc(-c2coc3ncc(-c4ccccc4)cc23)cc1Cl [SGC-CAMKK2-1N (UNC-YL-83)],remaining binding at 1 µM,[1],89%
same,remaining binding at 1 µM,[2],100%
same,remaining binding at 1 µM,[3],99%
same,remaining binding at 1 µM,[4],100%
same,remaining binding at 1 µM,[5],100%
same,remaining binding at 1 µM,[6],100%
same,remaining binding at 1 µM,[7],100%
same,remaining binding at 1 µM,[8],93%
same,remaining binding at 1 µM,[9],100%
same,remaining binding at 1 µM,[10],94%
same,remaining binding at 1 µM,[11],100%
same,remaining binding at 1 µM,[12],64%
same,remaining binding at 1 µM,[13],82%
same,remaining binding at 1 µM,[14],100%
same,remaining binding at 1 µM,[15],59%
same,remaining binding at 1 µM,[16],63%
same,remaining binding at 1 µM,[17],66%
same,remaining binding at 1 µM,[18],66%
same,remaining binding at 1 µM,[19],100%
same,remaining binding at 1 µM,[20],76%
Cc1cccc(-c2cnc3occ(-c4ccc(C(=O)O)c(C5CCCC5)c4)c3c2)c1 [SGC-CAMKK2-1 (YL-36)],remaining binding at 1 µM,[21],100%
same,remaining binding at 1 µM,[22],100%
same,remaining binding at 1 µM,[23],100%
same,remaining binding at 1 µM,[24],98%
same,remaining binding at 1 µM,[25],77%
same,remaining binding at 1 µM,[26],100%
same,remaining binding at 1 µM,[27],100%
same,remaining binding at 1 µM,[28],100%
same,remaining binding at 1 µM,[29],85%
same,remaining binding at 1 µM,[30],78%
same,remaining binding at 1 µM,[31],100%
same,remaining binding at 1 µM,[32],100%
same,remaining binding at 1 µM,[33],100%
same,remaining binding at 1 µM,[34],96%
